Test system: Huh7 psiCHECK-miR122 Renilla luciferase reporter, 48 h
Test: suppression of miR-122 activity, Renilla luciferase sensor – cell-based, Huh7 psiCHECK-miR122, cherry-pick, dose response (AID 652053)

CCCNC(=O)C[C@H]1CC[C@H]2[C@H](COc3ccc(NC(=O)Cc4cccs4)cc3C(=O)N2C)O1
AC40: 2.21 µM

C[C@@H]1CN([C@H](C)CO)C(=O)Cc2cc(N(C)C)ccc2O[C@H]1CN(C)Cc1ccc(C(=O)Nc2ccccc2N)cc1
AC40: 10.3 µM

COc1ccc(S(=O)(=O)Nc2cccc3c2O[C@H](CN(C)Cc2ccc(Cl)c(Cl)c2)[C@@H](C)CN([C@H](C)CO)C3=O)cc1
AC40: 4.25 µM

COc1ccccc1N(CC(=O)N1CCCCC1C)S(=O)(=O)c1ccc(Cl)cc1 (configuration not stated)
AC40: 2.31 µM

COc1ccc(S(=O)(=O)N(C)C[C@H]2Oc3ccc(NC(=O)Nc4ccc(F)cc4)cc3C(=O)N([C@H](C)CO)C[C@H]2C)cc1
AC40: 0.631 µM

Cc1ccc(C(=O)C2Oc3ccccc3C3CC(c4ccc(C)cc4)=NN23)cc1 (configuration not stated)
AC40: 1.17 µM

CCOc1cc(S(=O)(=O)Nc2cc(C)cc(C)c2)ccc1Cl
AC40: 1.99 µM

O=C(Nc1ccc(S(=O)(=O)Nc2nccs2)cc1)c1cc(-c2ccccc2Cl)nc2ccccc12
AC40: 2.48 µM

O=c1c2ccccc2nnn1CSc1nnc(C2COc3ccccc3O2)n1-c1ccccc1 (configuration not stated)
AC40: 19.2 µM

COc1ccccc1-c1nnc2sc(-c3ccc(N(C)C)cc3)nn12
AC40: 7.44 µM

COc1ccc(NC(=O)CCNS(=O)(=O)c2cc(Br)ccc2Br)cc1S(N)(=O)=O
AC40: 2.1 µM

COc1ccc(OC)c(S(=O)(=O)Nc2cc3c4c(c2)CCC(=O)N4CCC3)c1
AC40: 0.84 µM

Cc1ccc(NS(=O)(=O)c2cc(C(=O)NCc3ccccn3)ccc2Cl)cc1C
AC40: 2.91 µM

Cc1ccc(NS(=O)(=O)c2cc3c4c(c2)CC(=O)N4CCC3)cc1C
AC40: 2.61 µM

C[C@@H]1CN([C@H](C)CO)C(=O)c2cccc(NC(=O)Nc3ccccc3)c2O[C@@H]1CN(C)Cc1ccc(C(=O)Nc2ccccc2N)cc1
AC40: 20.5 µM

Cc1cc(C)c(S(=O)(=O)NCCCn2ccnc2)cc1C
AC40: 1.45 µM

C[C@@H]1CN([C@H](C)CO)C(=O)Cc2cc(NS(=O)(=O)c3ccc(Cl)cc3)ccc2O[C@@H]1CN(C)C(=O)Nc1ccc(C(F)(F)F)cc1
AC40: 6.38 µM

COc1cccc(NS(=O)(=O)c2cc(C)sc2C)c1
AC40: 1.43 µM

COC(=O)c1ccc(C)c(NS(=O)(=O)c2ccc(OC)c(OC)c2)c1
AC40: 21.5 µM

C[C@@H]1CN([C@@H](C)CO)C(=O)Cc2cc(N(C)C)ccc2O[C@@H]1CN(C)Cc1ccc(C(=O)Nc2ccccc2N)cc1
AC40: 10 µM

O=C(NCCCN1CCCC1=O)c1cccc(S(=O)(=O)Nc2ccc(Br)cc2)c1
AC40: 7.56 µM

O=C(CCc1ccc(S(=O)(=O)NC2CCCCC2)cc1)NCc1ccccc1
AC40: 4.38 µM

COc1ccc(C)cc1S(=O)(=O)Nc1cc(Cl)ccc1Cl
AC40: 2.5 µM

COc1ccc(NS(=O)(=O)c2cc(NC(=O)c3sccc3C)ccc2N2CCOCC2)cc1
AC40: < 0.26 µM

C[C@H](CO)N1C[C@H](C)[C@@H](CN(C)CC2CCCCC2)Oc2c(NC(=O)C3CC3)cccc2C1=O
AC40: 0.602 µM

C[C@@H]1CN([C@@H](C)CO)C(=O)c2cccc(NC(=O)C3CCCCC3)c2O[C@@H]1CN(C)Cc1ccc(C(=O)Nc2ccccc2N)cc1
AC40: 6.92 µM

CCCNC(=O)NC[C@H]1[C@@H](c2ccc(C3=CCCC3)cc2)[C@@H](CO)N1C(=O)CC
AC40: 10.2 µM

COc1ccc(C)cc1NS(=O)(=O)c1ccc2c(c1)N(C)CCO2
AC40: 1.54 µM

Cc1ccc(C)c(S(=O)(=O)Nc2cc3c4c(c2)CCC(=O)N4CCC3)c1
AC40: 0.678 µM

Cc1ccc(S(=O)(=O)Nc2cccc(S(=O)(=O)N3CCCC3)c2)cc1C
AC40: 1.03 µM

S=C(Nc1ccc(Cl)cc1Cl)NC1CCCCC1
AC40: 3.4 µM

Cc1ccc(C(=O)NCCSC2CCCCC2)cc1S(=O)(=O)Nc1ccccc1
AC40: 6.44 µM

O=S(=O)(NCCc1ccccc1)c1cccc(S(=O)(=O)N2CCOCC2)c1
AC40: 6 µM

CN1c2ccc(-c3cccc(F)c3)cc2[C@H]2[C@H](CCN2S(=O)(=O)c2cccc(F)c2)[C@H]1CO
AC40: 6.4 µM

CCN(CC)S(=O)(=O)c1ccc(C)c(NCC(=O)Nc2ccc(C#N)c(Cl)c2)c1
AC40: 1.77 µM

CCC(C(=O)Nc1ccc(N2CCOCC2)c(S(=O)(=O)Nc2ccccc2OC)c1)c1ccccc1 (configuration not stated)
AC40: 1.11 µM

CCOc1ccc(Br)cc1S(=O)(=O)Nc1ccc(Cl)c(S(=O)(=O)N(CC)c2ccccc2)c1
AC40: 4.18 µM

Cc1cc(C(=O)Nc2cccc3c2O[C@@H](CN(C)CC2CCCCC2)[C@@H](C)CN([C@H](C)CO)C3=O)n(C)n1
AC40: 2.41 µM

COc1ccc(NS(=O)(=O)c2cc3c(cc2C)N(C)CCO3)c(OC)c1
AC40: 1.81 µM

COc1ccc(S(=O)(=O)Nc2ccc(-c3ccc4nnc(C)n4n3)cc2)c(OC)c1
AC40: 4.03 µM

Cc1ccc(C(=O)NCCSc2ccccc2)cc1S(=O)(=O)Nc1ccccc1
AC40: 4.09 µM

COc1cccc(S(=O)(=O)Nc2ccc(C(O)(C(F)(F)F)C(F)(F)F)cc2)c1
AC40: 4.24 µM

CCc1ccc(-c2cc(C)no2)cc1S(=O)(=O)NCCc1ccc(OC)c(OC)c1
AC40: 7.43 µM

CN1c2ccc(-c3cccc(F)c3)cc2[C@H]2[C@H](CCN2C(=O)c2ccccc2F)[C@H]1CO
AC40: 0.528 µM

Cc1ccc(NS(=O)(=O)c2ccc3c(c2)n(C)c(=O)n3C)cc1C
AC40: 3.8 µM

COc1ccc(S(=O)(=O)N(C)C[C@H]2Oc3ccc(NC(=O)Cc4ccccc4)cc3C(=O)N([C@H](C)CO)C[C@H]2C)cc1
AC40: 2.75 µM

C/C(=N\NC(=O)c1cccc(S(=O)(=O)Nc2cccc(Cl)c2)c1)c1cccs1
AC40: 3.3 µM

Fc1cccc(NC(=S)NC2CCCCCCC2)c1
AC40: 4.22 µM

O=C1C(Oc2ccccc2)C(c2ccc3c(c2)OCO3)N1CCc1ccc(F)cc1 (configuration not stated)
AC40: 8.01 µM

C=CCN(CC=C)S(=O)(=O)c1ccc2nc(NC(=O)C(C)C)sc2c1
AC40: 8.29 µM

Cc1cc(C)c(S(=O)(=O)Nc2ccc3c4c(cccc24)CC3)c(C)c1
AC40: 7.76 µM

C[C@H](CO)N1C[C@H](C)[C@H](CN(C)Cc2ccc(C(=O)Nc3ccccc3N)cc2)Oc2ccc(NC(=O)Nc3ccc(F)cc3)cc2CC1=O
AC40: 9.84 µM

C[C@H](CO)N1C[C@H](C)[C@@H](CN(C)C(=O)Nc2ccc(C(F)(F)F)cc2)Oc2c(NC(=O)C3CCOCC3)cccc2C1=O
AC40: 29.8 µM

CNC(=O)NC(=O)C(C)OC(=O)c1ccc(Cl)c(S(=O)(=O)Nc2ccc(F)cc2)c1 (configuration not stated)
AC40: 7.64 µM

CC1CC(C)CN(S(=O)(=O)c2ccc(NC(=O)c3ccc(=O)[nH]c3)cc2)C1 (configuration not stated)
AC40: 12 µM

Cc1cc(S(=O)(=O)NCC(c2ccccc2)c2ccccc2)ccc1-n1cnnn1
AC40: 2.23 µM

C[C@@H]1CN([C@H](C)CO)C(=O)c2cccc(NC(=O)NC3CCCCC3)c2O[C@H]1CN(C)Cc1ccc(Cl)c(Cl)c1
AC40: 0.891 µM

Cc1ccccc1NS(=O)(=O)c1cc(C(=O)N2CCc3ccccc3C2)ccc1C
AC40: 20.4 µM

Cc1cc(S(=O)(=O)Nc2cccc(Cl)c2)c(C)s1
AC40: 0.486 µM

CC(C)CNS(=O)(=O)c1ccc(CCC(=O)NCCC2=CCCCC2)cc1
AC40: 23 µM

CCCNC(=O)C[C@H]1CC[C@H]2[C@H](COc3ccc(NC(=O)c4ccc5c(c4)OCO5)cc3C(=O)N2C)O1
AC40: 14.2 µM

Cc1ccc(S(=O)(=O)Nc2ccc3c(c2)CCC3)cc1
AC40: 6.54 µM

COCC(=O)Nc1ccc(S(=O)(=O)NCCc2ccccc2)cc1
AC40: 12.9 µM

C/C(CC(=O)Nc1ccccn1)=N\NC(=O)c1ccccc1O
AC40: 2.59 µM

COc1ccc(C)cc1S(=O)(=O)Nc1cccc(SC)c1
AC40: 0.582 µM

CNC(=S)Nc1ccc(N2CCCC2)c(S(=O)(=O)Nc2ccc(OC)cc2)c1
AC40: 1.31 µM

COc1ccc(NS(=O)(=O)c2cc(NC(=O)c3ccc(=O)[nH]n3)ccc2C)cc1
AC40: 5.01 µM

C[C@@H]1CN([C@@H](C)CO)C(=O)c2cccc(NC(=O)c3ccncc3)c2O[C@@H]1CN(C)C
AC40: 12 µM

CSc1ccc(S(=O)(=O)Nc2ccc(F)cc2)cc1
AC40: 5.15 µM

O=C(Nc1ccccc1)N1C[C@H]2[C@@H](c3ccccc31)[C@@H](CO)N2C(=O)c1ccccn1
AC40: 33.7 µM

COc1ccc(S(=O)(=O)NC2CCCCC2)c(C)c1C
AC40: 1.57 µM

Cc1nn(C)c(C)c1S(=O)(=O)NCc1cccs1
AC40: 13.9 µM

COc1ccc(C(=O)N2C[C@H]3[C@@H](c4ccccc42)[C@@H](CO)N3C(=O)c2ccc(F)cc2)cc1
AC40: 0.631 µM

CC(C)c1ccc(NC(=S)NCc2cccs2)cc1
AC40: 2.8 µM

C[C@@H]1CCCCO[C@@H](CN(C)CC2CCCCC2)[C@@H](C)CN([C@H](C)CO)C(=O)c2cc(NC(=O)CCC(F)(F)F)ccc2O1
AC40: 9.73 µM

COc1ccc(C2=Nn3c(nnc3-c3ccccc3OC)SC2)cc1OC1CCOC1 (configuration not stated)
AC40: 8.29 µM

O=C(Cc1ccccc1)N1CC[C@@H]2[C@@H](CO)Nc3ccc(-c4cccc(F)c4)cc3[C@@H]21
AC40: 7.15 µM

COc1ccc(C(=O)Nc2cccc(S(=O)(=O)NCc3ccco3)c2)cc1
AC40: 0.822 µM

Cc1ccc(S(=O)(=O)NCCN2CCOCC2)c(C)c1C
AC40: 6.26 µM

COc1ccc(CN(C)C[C@H]2Oc3c(NC(=O)NC4CCCCC4)cccc3C(=O)N([C@H](C)CO)C[C@@H]2C)cc1
AC40: 5.06 µM

COc1cc2oc3ccccc3c2cc1N(CC(=O)N(C)C)S(=O)(=O)c1ccccc1
AC40: 4.54 µM

COc1ccc(S(=O)(=O)N(CCc2ccccc2)CC(=O)N2CCOCC2)cc1
AC40: 17.1 µM

Cc1cc(C)c(S(=O)(=O)Nc2ccc(O)cc2)cc1C
AC40: 3.45 µM

O=C(c1cccc(F)c1)N1C[C@H]2[C@@H](c3ccccc31)[C@@H](CO)N2C(=O)c1ccc(F)cc1
AC40: 1.08 µM

CC(=O)N1c2c(cc(Br)cc2S(=O)(=O)NCC2COc3ccccc3O2)CC1C (configuration not stated)
AC40: 4.53 µM

Cc1cccc(NS(=O)(=O)c2csc(C(N)=O)c2)c1
AC40: 3.34 µM

COc1ccc(-c2cc(C)no2)cc1S(=O)(=O)NCC(C)c1ccccc1 (configuration not stated)
AC40: 2.74 µM

C=CCNC(=O)c1ccccc1NC(=O)c1ccc(Cl)c(S(=O)(=O)Nc2cc(C)ccc2C)c1
AC40: 1.38 µM

CCCCn1nnnc1C(c1cccc(OC)c1OC)N1CCC2(CC1)C(=O)NCN2c1ccccc1 (configuration not stated)
AC40: 2.44 µM

CCCCNS(=O)(=O)c1ccc2nc(SCC(N)=O)[nH]c2c1
AC40: 6.07 µM

COc1cc(S(=O)(=O)NCc2cccnc2)c(OC)cc1Br
AC40: 4.72 µM

O=C(Nc1ccc(S(=O)(=O)NC2CCCCC2)cc1)c1ccc(Br)o1
AC40: 1.66 µM

CCOC(=O)c1cc(S(=O)(=O)NC2CCCCC2)cn1C
AC40: 5.77 µM

COC(=O)c1cc(S(=O)(=O)Nc2cc(OC)cc(OC)c2)cn1C
AC40: 2.37 µM

COc1ccc(S(=O)(=O)NCc2ccco2)c2ccccc12
AC40: 2.62 µM

O=C(NC1CCCC1)C(c1ccccc1F)N(C(=O)Cc1cccs1)c1ccc2c(c1)OCCO2 (configuration not stated)
AC40: 25.9 µM

CN1CCN(C(=O)c2cc3nc(-c4ccccc4)cc(-c4ccccc4)n3n2)CC1
AC40: 2.23 µM
